The conditions of series [1]: cited from earlier work.
The nature of the next series: solubility parameter. It counts as physicochemical. The source says: The solubility parameter for a substance is a numerical value which indicates the relative solvency behavior of that substance. The concept is discussed and defined in US 2008/0145403.
Latanoprost is very difficult to incorporate into biodegradable polymer matrices, because it is an oil. It has now been discovered, that this problem can be overcome by using a combination of high molecular weight PLA and PLGA polymers and fabricating the implant by melt extrusion or casting in an appropriate solvent. The oily drug substance (DS), i.e. latanoprost, helps plasticize the polymer and allows the production of a homogeneous polymer film. […] It has been determined that dichloromethane is a good solvent for PLA and PLGA, which have solubility parameters of about 21.1 MPa^0.5 and about 22.1 MPa^0.5, respectively. Thus, a solvent having a solubility parameter of from 17.1 to 26.1 MPa^0.5, preferably from 17.6 to 25.6, e.g. 21.1 or 22.1 MPa^0.5 may be used in the practice of this invention. Such solvents may include dichloromethane, isopropanol, ethanol, acetonitrile and octanol.

On to `CC(C)OC(=O)CCC/C=C\C[C@@H]1[C@@H](CC[C@@H](O)CCc2ccccc2)[C@H](O)C[C@@H]1O` [Latanoprost], for which the “solubility in organic solvents” value in series [1] (acetone, ethanol, ethyl acetate, isopropanol, methanol and octanol) is “freely soluble”. Besides, the solubility in acetonitrile entry in series [1] (acetonitrile) is listed as “very soluble”. In series [1] (water), the solubility in water entry is given as “practically insoluble”. Further, the solubility parameter in “solubility parameter” is 22-24 MPa^0.5. As for `ClCCl` [dichloromethane], the solubility parameter in “solubility parameter” turned out to be 19.8 MPa^0.5. Turning to PEG 3350, the solubility parameter entry in the series “solubility parameter” was “about 20 MPa^0.5”. Take poly(D,L-lactide) [PLA]: in the series “solubility parameter”, the solubility parameter result is reported as “about 21.1 MPa^0.5”. On the same count and under the same terms, in the case of poly(D,L-lactide-co-glycolide) [PLGA] it was “about 22.1 MPa^0.5”.

(Values after patent publication US20120276186A1, “SUSTAINED RELEASE LATANOPROST IMPLANT” (priority 2011, published 2012).)
